Measured values from patent publication EP0680973A1, “Peptides, process to prepare them and their use” (priority 1994, dated 1995).
Ends that are not written are not given here.

System: HIV-1 Protease
Type: biochemical
Conditions: bei 50 µM, nur 1 Bestimmung; 5% DMSO

Q: Which “Inhibition der HIV-1 Protease” value does the source give for “PQITLSDRLGGGGDRVSFNF-NH2 [HPQITLSDRLGGGGDRVSFNF-NH₂]” here?
A: 36%⁺
